From ChEMBL document CHEMBL3091294, “Design, synthesis and evaluation of novel 4-dimethylamine flavonoid derivatives as potential multi-functional anti-Alzheimer agents” (Bioorg Med Chem, 2013) come the findings set out here.

Bounds are passed on as bounds.

For assay [1], the target named is T1, Acetylcholinesterase (Electrophorus electricus, UniProt O42275).
Description: Inhibition of electric eel AChE using acetylthiocholine chloride as substrate incubated for 15 mins prior to substrate addition by Ellman's method
Assay [2] has as its target Amyloid-beta precursor protein (Homo sapiens) (UniProt P05067). As to the kind of experiment: Inhibition of amyloid beta (1 to 42) aggregation (unknown origin) at 20 uM after 48 hrs by thioflavin-T fluorescence assay relative to control.
The target in a further assay is Cholinesterase (Equus caballus, UniProt P81908).
A short description of assay [3]: Antioxidant activity assessed as trolox equivalent of peroxyl radical scavenging activity at 1 to 5 uM after 15 mins by oxygen radical absorbance capacity-fluorescein assay. It counts as functional.
For assay [4], the target named is T1, Acetylcholinesterase. Briefly: Mixed-type inhibition of electric eel AChE using acetylthiocholine chloride as substrate incubated for 15 mins prior to substrate addition by Lineweaver-Burk plot analysis.

In general, IC50 refers to the concentration that inhibits the measured activity by half. For orientation: inhibition means the change of the read-out against control, counted positive when it falls. The Ki is the equilibrium dissociation constant of an inhibitor or competing ligand from its target. High values mean weaker binding, low ones tighter binding.

T1 sequence (O42275 whole entry): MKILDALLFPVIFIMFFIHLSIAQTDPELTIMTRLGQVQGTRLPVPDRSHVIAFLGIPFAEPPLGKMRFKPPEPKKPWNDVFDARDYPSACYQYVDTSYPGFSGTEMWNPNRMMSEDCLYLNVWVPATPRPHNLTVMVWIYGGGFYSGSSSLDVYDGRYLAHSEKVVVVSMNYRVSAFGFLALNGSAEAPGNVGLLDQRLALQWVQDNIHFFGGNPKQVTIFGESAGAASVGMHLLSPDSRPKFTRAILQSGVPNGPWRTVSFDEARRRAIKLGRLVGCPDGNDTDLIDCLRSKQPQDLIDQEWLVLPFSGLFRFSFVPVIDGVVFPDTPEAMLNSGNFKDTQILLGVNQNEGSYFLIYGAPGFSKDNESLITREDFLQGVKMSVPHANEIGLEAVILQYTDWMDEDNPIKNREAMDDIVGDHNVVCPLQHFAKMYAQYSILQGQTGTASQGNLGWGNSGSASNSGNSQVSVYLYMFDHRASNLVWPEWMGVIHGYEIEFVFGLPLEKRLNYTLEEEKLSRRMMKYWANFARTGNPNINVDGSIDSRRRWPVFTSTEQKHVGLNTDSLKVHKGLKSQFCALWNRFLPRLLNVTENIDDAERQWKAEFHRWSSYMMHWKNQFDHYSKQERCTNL
Sequence of Cholinesterase (P81908 whole entry): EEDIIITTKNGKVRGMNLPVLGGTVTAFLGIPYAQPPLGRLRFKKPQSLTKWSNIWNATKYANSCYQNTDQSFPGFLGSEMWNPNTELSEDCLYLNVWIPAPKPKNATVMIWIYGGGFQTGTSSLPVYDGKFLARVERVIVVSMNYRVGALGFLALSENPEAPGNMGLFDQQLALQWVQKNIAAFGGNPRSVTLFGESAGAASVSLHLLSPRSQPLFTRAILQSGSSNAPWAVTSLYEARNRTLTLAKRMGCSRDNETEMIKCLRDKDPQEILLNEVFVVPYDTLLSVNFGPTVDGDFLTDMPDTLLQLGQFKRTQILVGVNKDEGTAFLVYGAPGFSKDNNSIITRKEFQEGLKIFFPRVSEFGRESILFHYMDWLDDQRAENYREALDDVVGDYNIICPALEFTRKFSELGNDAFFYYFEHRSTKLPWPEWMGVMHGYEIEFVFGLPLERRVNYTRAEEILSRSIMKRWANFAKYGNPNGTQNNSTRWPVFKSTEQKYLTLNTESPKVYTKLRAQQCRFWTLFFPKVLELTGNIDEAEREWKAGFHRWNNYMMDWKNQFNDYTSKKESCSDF
Sequence of Amyloid-beta precursor protein (Homo sapiens) (P05067 whole entry): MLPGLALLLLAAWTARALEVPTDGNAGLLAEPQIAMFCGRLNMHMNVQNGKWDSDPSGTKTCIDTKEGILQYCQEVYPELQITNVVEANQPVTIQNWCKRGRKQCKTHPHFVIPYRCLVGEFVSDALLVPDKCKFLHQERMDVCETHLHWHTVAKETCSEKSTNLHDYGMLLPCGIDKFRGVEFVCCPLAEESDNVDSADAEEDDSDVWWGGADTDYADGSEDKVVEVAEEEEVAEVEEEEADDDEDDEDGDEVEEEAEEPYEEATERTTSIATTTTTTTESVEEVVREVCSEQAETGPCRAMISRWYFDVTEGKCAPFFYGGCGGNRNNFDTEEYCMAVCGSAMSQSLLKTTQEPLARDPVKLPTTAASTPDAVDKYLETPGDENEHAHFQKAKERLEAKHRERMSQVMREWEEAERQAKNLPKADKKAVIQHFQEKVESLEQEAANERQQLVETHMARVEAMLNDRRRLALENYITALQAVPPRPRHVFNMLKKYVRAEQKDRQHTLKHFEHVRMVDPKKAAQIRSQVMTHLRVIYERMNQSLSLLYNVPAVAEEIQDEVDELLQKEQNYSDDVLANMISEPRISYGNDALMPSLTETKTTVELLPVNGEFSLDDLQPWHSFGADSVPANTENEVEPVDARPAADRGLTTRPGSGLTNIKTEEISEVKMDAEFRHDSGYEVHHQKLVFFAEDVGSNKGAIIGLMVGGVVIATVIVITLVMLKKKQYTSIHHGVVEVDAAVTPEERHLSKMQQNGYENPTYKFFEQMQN

In the case of `CN(CCCCOc1ccc2c(=O)cc(-c3ccc(N(C)C)cc3)oc2c1)Cc1ccccc1`, the IC50 is 8.29 µM against Acetylcholinesterase [1] and more than 50 µM against Cholinesterase. The inhibition in assay [2] amounted to 39.1%.
The matching figures for `CN(C)c1ccc(-c2cc(=O)c3ccc(OCCCCN4CCCCC4)cc3o2)cc1`: 3.04 µM, 6.12 µM and 30.6%.
On the same counts, the results for `CCN(CC)CCCCOc1ccc2c(=O)cc(-c3ccc(N(C)C)cc3)oc2c1` are 2.24 µM, 7.88 µM and 33.2%.
For the molecule `CN(C)c1ccc(-c2cc(=O)c3ccc(OCCCCCCN4CCCCC4)cc3o2)cc1`, the IC50 on Acetylcholinesterase [1] came out at 6.73 µM; at Cholinesterase, 5.52 µM. Besides, the inhibition in assay [2] came out at 25.4%.
Turning to `CN(C)c1ccc(-c2cc(=O)c3ccc(OCCCCCCCCCCN4CCCC4)cc3o2)cc1`, the IC50 worked out at 2.26 µM against Acetylcholinesterase [1] and 0.82 µM against Cholinesterase. In addition, the Activity in assay [3] stood at 1.5. Also, the inhibition in assay [2] came out at 38.6%.
The matching figures for `CN(C)c1ccc(-c2cc(=O)c3ccc(OCCCCCCCCN4CCCCC4)cc3o2)cc1`: 7.88 µM, 8.72 µM, 1.5 and 34.8%.
Regarding `CN(C)c1ccc(-c2cc(=O)c3ccc(OCCCCN4CCCC4)cc3o2)cc1`, the IC50 against Acetylcholinesterase [1] turned out to be 2.77 µM; against Cholinesterase, 6.14 µM. Besides, in assay [2], the inhibition came out at 36.6%.
Turning to `CCN(CC)CCCCCCCCCCOc1ccc2c(=O)cc(-c3ccc(N(C)C)cc3)oc2c1`, the IC50 on Acetylcholinesterase [1] came out at 3.74 µM; against Cholinesterase, 2.31 µM. In addition, the Activity in assay [3] is 1.5. Further, in assay [2], the inhibition is 33.4%.
As to `CN(C)c1ccc(-c2cc(=O)c3ccc(OCCCCCCCCCCN4CCCCC4)cc3o2)cc1`, the IC50 on Acetylcholinesterase [1] is more than 50 µM; against Cholinesterase it was 2.42 µM. Further, the Activity in assay [3] was found to be 1.5. Further, the inhibition in assay [2] is 40.7%.
As to `CN(CCCCCCCCCCOc1ccc2c(=O)cc(-c3ccc(N(C)C)cc3)oc2c1)Cc1ccccc1`, the IC50 is 11.4 µM at Acetylcholinesterase [1] and more than 50 µM at Cholinesterase. The Activity in assay [3] came to 1.5. Further, the inhibition in assay [2] is 29.4%.
On to `CN(C)c1ccc(-c2cc(=O)c3ccc(OCCCCCCCCN4CCCC4)cc3o2)cc1`, for which the IC50 turned out to be 1.99 µM at Acetylcholinesterase [1] and 2.6 µM on Cholinesterase. Further, in assay [3], the Activity came to 1.5. In assay [2], this molecule returned an inhibition of 42.1%.
With `CCN(CC)CCCCCCOc1ccc2c(=O)cc(-c3ccc(N(C)C)cc3)oc2c1`, the IC50 at Acetylcholinesterase [1] was found to be 3.11 µM; against Cholinesterase, 4.61 µM. For the same molecule, the inhibition in assay [2] turned out to be 38.1%.
Consider `CN(C)c1ccc(-c2cc(=O)c3ccc(OCCCCN4CCOCC4)cc3o2)cc1`, for which the results for the IC50 at Acetylcholinesterase [1] and at Cholinesterase were more than 50 µM and 10.1 µM, respectively. Moreover, the inhibition in assay [2] was found to be 44.7%.
The matching figures for `CN(CCCCCCCCCCCCOc1ccc2c(=O)cc(-c3ccc(N(C)C)cc3)oc2c1)Cc1ccccc1`: 33.2 µM, more than 50 µM and 48.1%.
For the molecule `CN(CCCCCCOc1ccc2c(=O)cc(-c3ccc(N(C)C)cc3)oc2c1)Cc1ccccc1`, the IC50 is 7.85 µM at Acetylcholinesterase [1] and more than 50 µM on Cholinesterase. For the same molecule, the inhibition in assay [2] turned out to be 46.5%.
In the case of `CN(C)c1ccc(-c2cc(=O)c3ccc(OCCCCCCN4CCCC4)cc3o2)cc1`, the IC50 against Acetylcholinesterase [1] was 9.18 µM; on Cholinesterase, 11.5 µM. Besides, the inhibition in assay [2] stood at 32.6%.
For the molecule `CCN(CC)CCCCCCCCOc1ccc2c(=O)cc(-c3ccc(N(C)C)cc3)oc2c1`, the figures for the IC50 at Acetylcholinesterase [1] and on Cholinesterase were 1.83 µM and 5.01 µM, respectively. In addition, the Activity in assay [3] was 1.5. Also, the inhibition in assay [2] is 45.8%. This molecule showed a Ki at Acetylcholinesterase [4] of 0.386 µM.
As for `CN(CCCCCCCCOc1ccc2c(=O)cc(-c3ccc(N(C)C)cc3)oc2c1)Cc1ccccc1`, the IC50 against Acetylcholinesterase [1] was 24 µM; against Cholinesterase it was more than 50 µM. In assay [3], the Activity was 1.5. This molecule also returned an inhibition in assay [2] of 39.5%.
